Laboratory results: PubChem BioAssay (NCI)
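Method: 48-hour compound exposure of cells in 96-well plates, five concentrations, linear interpolation of endpoints. At the GI50, growth is halved. Definition used: TGI = concentration required for complete inhibition of growth.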

Tests used:
Assay in all cases: growth of human tumour cells (NCI), 48 h
[1] = system: SK-MEL-2 melanoma
[2] = system: RPMI-8226 leukemia
[3] = system: A498 renal
[4] = system: HOP-62 NSCLC
[5] = system: HCT-15 colon
[6] = system: SK-MEL-5 melanoma
[7] = system: SNB-19 CNS
[8] = system: PC-3 prostate
[9] = system: SF-268 CNS
[10] = system: SK-MEL-28 melanoma
[11] = system: UO-31 renal
[12] = system: OVCAR-8 ovarian
[13] = system: MDA-MB-231 breast
[14] = system: IGROV1 ovarian
[15] = system: HL-60(TB) leukemia
[16] = system: OVCAR-3 ovarian
[17] = system: SK-OV-3 ovarian
[18] = system: ACHN renal
[19] = system: RXF 393 renal
[20] = system: K-562 leukemia
[21] = system: SNB-75 CNS
[22] = system: LOX IMVI melanoma
[23] = system: MDA-MB-435
[24] = system: SW-620 colon
[25] = system: HT29 colon
[26] = system: EKVX NSCLC
[27] = system: NCI/ADR-RES ovarian
[28] = system: HCC-2998 colon
[29] = system: HOP-92 NSCLC
[30] = system: SR leukemia
[31] = system: KM12 colon
[32] = system: NCI-H460 lung
[33] = system: HS 578T breast
[34] = system: SN12C renal
[35] = system: A549 NSCLC
[36] = system: T-47D breast
[37] = system: DU-145 prostate
[38] = system: MOLT-4 leukemia
[39] = system: NCI-H23 lung
[40] = system: MCF7 breast
[41] = system: BT-549 breast
[42] = system: UACC-62 melanoma
[43] = system: NCI-H522 lung
[44] = system: TK-10 renal
[45] = system: OVCAR-5 ovarian
[46] = system: MALME-3M melanoma
[47] = system: M14 melanoma
[48] = system: OVCAR-4 ovarian
[49] = system: CCRF-CEM leukemia
[50] = system: 786-0 renal
[51] = system: CAKI-1 renal
[52] = system: UACC-257 melanoma
[53] = system: NCI-H226 lung
[54] = system: HCT-116 colon
[55] = system: U251 CNS
[56] = system: SF-539 CNS
[57] = system: SF-295 CNS
[58] = system: COLO 205 colon

## N#CN1CCC[C@H]1C(=O)N1CCc2c(-c3[nH]nc4ncccc34)cccc21
[1]
  GI50: < 0.01 µM
  TGI: 18.2 µM
[2]
  GI50: < 0.01 µM
  TGI: 7.47 µM
[3]
  GI50: < 0.0114 µM
  TGI: 0.148 µM
[4]
  GI50: 0.0222 µM
  TGI: 10.6 µM
[5]
  GI50: < 0.01 µM
  TGI: 11.3 µM
[6]
  GI50: 0.0606 µM
  TGI: 0.126 µM
[7]
  GI50: 0.157 µM
  TGI: 21.5 µM
[8]
  GI50: < 0.01 µM
  TGI: 23.6 µM
[9]
  GI50: < 0.01 µM
  TGI: 13.2 µM
[10]
  GI50: < 0.01 µM
  TGI: 13.9 µM
[11]
  GI50: 0.0431 µM
  TGI: 5.11 µM
[12]
  GI50: < 0.01 µM
  TGI: 11 µM
[13]
  GI50: < 0.01 µM
  TGI: 0.177 µM
[14]
  GI50: 0.0862 µM
  TGI: 12.6 µM
[15]
  GI50: < 0.01 µM
  TGI: < 0.01 µM
[16]
  GI50: < 0.01 µM
  TGI: < 0.01 µM
[17]
  GI50: 0.013 µM
  TGI: 0.0694 µM
[18]
  GI50: < 0.01 µM
  TGI: 7.89 µM
[19]
  GI50: < 0.01 µM
  TGI: 0.145 µM
[20]
  GI50: < 0.01 µM
  TGI: > 37.8 µM
[21]
  GI50: 0.211 µM
  TGI: 2.78 µM
[22]
  GI50: < 0.01 µM
  TGI: 10.6 µM
[23]
  GI50: < 0.01 µM
  TGI: < 0.01 µM
[24]
  GI50: < 0.01 µM
  TGI: 13.5 µM
[25]
  GI50: < 0.01 µM
  TGI: 0.0129 µM
[26]
  GI50: 0.101 µM
  TGI: 25 µM
[27]
  GI50: 0.0103 µM
  TGI: > 31.7 µM
[28]
  GI50: 0.12 µM
  TGI: 11.6 µM
[29]
  GI50: < 0.01 µM
  TGI: 0.0809 µM
[30]
  GI50: < 0.01 µM
  TGI: 20 µM
[31]
  GI50: < 0.01 µM
  TGI: 10.1 µM
[32]
  GI50: 0.105 µM
  TGI: 11.1 µM
[33]
  GI50: 0.239 µM
  TGI: > 100 µM
[34]
  GI50: < 0.01 µM
  TGI: 48.2 µM
[35]
  GI50: 0.106 µM
  TGI: > 25.1 µM
[36]
  GI50: 0.0227 µM
  TGI: 15 µM
[37]
  GI50: 0.018 µM
  TGI: 11.3 µM
[38]
  GI50: < 0.01 µM
  TGI: 11 µM
[39]
  GI50: < 0.01 µM
  TGI: 17.3 µM
[40]
  GI50: < 0.01 µM
  TGI: 11 µM
[41]
  GI50: < 0.01 µM
  TGI: 0.0993 µM
[42]
  GI50: < 0.01 µM
  TGI: 12.2 µM
[43]
  GI50: < 0.01 µM
  TGI: 0.412 µM
[44]
  GI50: 0.525 µM
  TGI: 4.17 µM
[45]
  GI50: < 0.0156 µM
  TGI: 17.4 µM
[46]
  GI50: 0.0279 µM
  TGI: 16.7 µM
[47]
  GI50: < 0.01 µM
  TGI: 0.354 µM
[48]
  GI50: < 0.01 µM
  TGI: 13.3 µM
[49]
  GI50: < 0.01 µM
  TGI: 28.4 µM
[50]
  GI50: < 0.01 µM
  TGI: 11.5 µM
[51]
  GI50: < 0.01 µM
  TGI: 1.46 µM
[52]
  GI50: < 0.01 µM
  TGI: 14.5 µM
[53]
  GI50: 0.051 µM
  TGI: 0.219 µM
[54]
  GI50: < 0.01 µM
  TGI: 8.14 µM
[55]
  GI50: 0.281 µM
  TGI: 2.91 µM
[56]
  GI50: < 0.01 µM
  TGI: < 0.01 µM
[57]
  GI50: 0.281 µM
  TGI: 4.41 µM

## CCCN(CCC)CCCNC(=O)c1cc2c(-c3ccc(OC)c(OC)c3)nn(C)c2s1
[1]
  GI50: 25.2 µM
  TGI: 72.9 µM
[2]
  GI50: 14.6 µM
  TGI: 42.2 µM
[3]
  GI50: 3.06 µM
  TGI: > 100 µM
[4]
  GI50: 37.2 µM
  TGI: > 100 µM
[5]
  GI50: 25 µM
  TGI: > 100 µM
[6]
  GI50: 15.4 µM
  TGI: 29 µM
[7]
  GI50: 34.2 µM
  TGI: > 100 µM
[8]
  GI50: 33.8 µM
  TGI: > 100 µM
[9]
  GI50: 31.1 µM
  TGI: > 100 µM
[10]
  GI50: 16.6 µM
  TGI: 32.1 µM
[11]
  GI50: 13.6 µM
  TGI: 47 µM
[12]
  GI50: 36.9 µM
  TGI: > 100 µM
[13]
  GI50: 18.8 µM
  TGI: 41.3 µM
[14]
  GI50: 43.3 µM
  TGI: > 100 µM
[15]
  GI50: 20.7 µM
  TGI: 46.2 µM
[16]
  GI50: 21.5 µM
  TGI: > 100 µM
[17]
  GI50: 44.3 µM
  TGI: > 100 µM
[18]
  GI50: 17.2 µM
  TGI: 39.5 µM
[19]
  GI50: 10.7 µM
  TGI: 31.1 µM
[20]
  GI50: 21.5 µM
  TGI: 66.2 µM
[21]
  GI50: 12.3 µM
  TGI: 40.5 µM
[22]
  GI50: 15.1 µM
  TGI: 31 µM
[23]
  GI50: 14.1 µM
  TGI: 31.8 µM
[24]
  GI50: 24.5 µM
  TGI: 82.6 µM
[25]
  GI50: 14.5 µM
  TGI: 45.3 µM
[26]
  GI50: 71.7 µM
  TGI: > 100 µM
[27]
  GI50: 33.4 µM
  TGI: > 100 µM
[28]
  GI50: 18.8 µM
  TGI: 37.7 µM
[29]
  GI50: 6.15 µM
  TGI: 46.9 µM
[30]
  GI50: 11.9 µM
  TGI: 58.9 µM
[31]
  GI50: 26 µM
  TGI: > 100 µM
[32]
  GI50: 32.6 µM
  TGI: > 100 µM
[33]
  GI50: 22.9 µM
  TGI: > 100 µM
[34]
  GI50: 54.9 µM
  TGI: > 100 µM
[35]
  GI50: 36.5 µM
  TGI: > 100 µM
[36]
  GI50: 27.5 µM
  TGI: 98.7 µM
[37]
  GI50: 39.1 µM
  TGI: > 100 µM
[38]
  GI50: 17.6 µM
  TGI: 59.5 µM
[39]
  GI50: 58 µM
  TGI: > 100 µM
[40]
  GI50: 18.2 µM
  TGI: 42.1 µM
[41]
  GI50: 20.9 µM
  TGI: 87 µM
[42]
  GI50: 16.9 µM
  TGI: 33 µM
[43]
  GI50: 16.6 µM
  TGI: 41.3 µM
[44]
  GI50: 40.9 µM
  TGI: > 100 µM
[45]
  GI50: 50.4 µM
  TGI: > 100 µM
[46]
  GI50: 18.4 µM
  TGI: 35.8 µM
[47]
  GI50: 17.2 µM
  TGI: 35 µM
[58]
  GI50: 13.6 µM
  TGI: 30.3 µM
[48]
  GI50: 23.5 µM
  TGI: > 100 µM
[49]
  GI50: 20.3 µM
  TGI: 65.6 µM
[50]
  GI50: 17.9 µM
  TGI: 91 µM
[51]
  GI50: 27.1 µM
  TGI: > 100 µM
[52]
  GI50: 17.3 µM
  TGI: 34.4 µM
[53]
  GI50: > 100 µM
  TGI: > 100 µM
[54]
  GI50: 17.7 µM
  TGI: 55.3 µM
[55]
  GI50: 25.3 µM
  TGI: > 100 µM
[56]
  GI50: 16 µM
  TGI: 31.1 µM
[57]
  GI50: 21.6 µM
  TGI: 49.4 µM
